Reference: patent US8183364B2, “Substituted porphyrins” (Duke University, priority 2004, dated 2012)
Read-outs that look alike come from different tables or passages of the source.

Tests used:
[1] = Thin-layer chromatography on silica gel (retention factor Rf, lipophilicity); format: physicochemical; details: silica gel TLC, KNO3-saturated H2O/H2O/acetonitrile = 1/1/8
Procedure: Uv/vis spectra of porphyrin ligands and their Mn complexes were taken on a Shimadzu UV-2501-PC spectrophotometer at 25° C. Thin-layer chromatography of ligands and Mn complexes was done using silica gel plates with KNO3satH2O/H2O/acetonitrile=1/1/8.
Thin-layer chromatography. All new methoxyporphyrins are more lipophilic than MnTE-2-PyP^5+ and MnTDE-2-ImP^5+.

[2] = Catalysis of O2.^− dismutation by pulse radiolysis; format: biochemical; details: pulse radiolysis, pH 7.8, (22 ± 1) °C; kcat ±30%
Procedure: Catalysis of O2.^− dismutation. The catalytic rate constants for the O2.^− dismutation were determined by pulse radiolysis in 0.05 M phosphate buffer (pH 7.8) at (22±1)° C. as previously described (Batinic-Haberle et al, Inorg. Chem. 40:726 (2001)). In the present study 10 mM formate was used as a scavenger for H. atoms and .OH radicals, which leads first to production of CO2.^− radicals and then to O2.^− radicals. This system is known to lead to conversion of all primary radicals of water radiolysis into O2.^−.
Catalysis of O2.^− dismutation. Pulse radiolysis was used to assess the SOD-like activities of the Mn porphyrins studied. The initial concentration of O2.^− produced by the pulse was about 27 μM, and the concentration of the Mn porphyrin was between 0.5 and 5 μM. The dismutation of O2.^− was followed at 280 nm. The catalytic rate constant was determined from the linear dependence of kobs upon the concentration of the catalyst (Batinic-Haberle et al, Inorg. Chem. 40:726 (2001)). All the new compounds have high O2.^− dismuting ability. The magnitude of the catalysis is due to the interplay of the electron-withdrawing effects of quaternized ortho pyridyl or di-ortho imidazolyl groups, favorable electrostatics, and the solvation of the metal site.

[3] = Oxidative degradation in the presence of ascorbic acid under aerobic conditions; format: physicochemical; details: pH 7.8 (0.05 M tris buffer)
Procedure: Under these conditions porphyrins underwent oxidative degradation. As previously observed (Batinic-Haberle et al, J. Chem. Soc., Dalton Trans., pgs. 2689-2696 (2002)), those porphyrins that are of more positive E1/2 are stabilized in +2 oxidation state and are less prone to oxidative damage. Accordingly, 27% and 24% of MnTE-2-PyP^5+ and MnTMOE-2-PyP^5+ undergo degradation within 2 hours, but only 2% of MnTM,MOE-2-ImP^5+ and MnTDMOE-2-ImP^5+ and 3% of MnTDE-2-ImP^5+.

[4] = Electrochemistry: cyclic voltammetry of the Mn(III)/Mn(II) redox couple; format: physicochemical
Procedure: Electrochemistry. Measurements were performed on a CH Instruments Model 600 Voltammetric Analyzer (Spasojevic and Batinic-Haberle, Inorg. Chim. Acta. 317:230-242 (2001), Batinic-Haberle et al, J. Biol. Chem. 273:24521-24528 (1998), Batinic-Haberle et al, Inorg. Chem. 38:4011-4022 (1999)). A three-electrode system in a small volume cell (0.5 mL to 3 mL), with a 3 mm-diameter glassy carbon button working electrode (Bioanalytical Systems), plus the Ag/AgCl reference and Pt auxiliary electrodes was used. Argon-purged solutions contained 0.05 M phosphate buffer, pH 7.8, 0.1 M NaCl, and 0.5 mM metalloporphyrin. The scan rates were 0.01-0.5 V/s, typically 0.1 V/s. The potentials were standardized against the potassium ferrocyanide/ferricyanide (Kolthof and Tomsicek, J. Phys. Chem. 39:945 (1935)) and/or against MnTE-2-PyP^5+ (Spasojevic and Batinic-Haberle, Inorg. Chim. Acta. 317:230-242 (2001), Batinic-Haberle et al, J. Biol. Chem. 273:24521-24528 (1998), Batinic-Haberle et al, Inorg. Chem. 38:4011-4022 (1999)).
Electrochemistry. All cyclic voltammograms, ascribed to the Mn(III)/Mn(II) redox couple, are reversible. The E1/2 of di-ortho ethylimidazolylporphyrin, MnTDE-2-ImP^5+ is 118 mV more positive than of ortho ethylpyridylporphyrin, MnTE-2-PyP^5+ (+228 mV vs NHE), as a consequence of charge delocalization. A similar difference of 114 mV was seen between their methoxyethyl analogues. Mn porphyrins bearing N-pyridyl substituents of the same length, MnTnBu-PyP^5+ and MnTMOE-2-PyP^5+, have nearly identical E1/2 of +254 and +251 mV vs NHE, which is 26 and 23 mV higher than that of MnTE-PyP^5+.

[5] = test system: SOD-deficient JI132 E. coli; assay: Aerobic growth of SOD-deficient E. coli; format: cell-based; details: for facilitation of aerobic growth of SOD-deficient E. coli, dependence on concentration: 1-30 μM
Procedure: (§1) Aerobic growth of E. coli. Bacterial strains of E. coli used were wild type AB1157 (F-thr-1 leu-1 proA2 his-4 argE3 thr-1 lacY1 galK2 rpsL supE44 ara-14 xyl-15 mtl-1 tsx-33) and SOD-deficient JI132 (same as AB1157 plus (sodA::mudPR13)25 (sodB-kan)1-Δ2. Culture media were prepared as follows. M9 medium: 6 g/L Na2HPO4, 3 g/L KH2PO4, 0.5 g/L NaCl, 1 g/L NH4Cl, 2 mM MgSO4, 0.1 mM CaCl2, adjusted to pH 7.4 with NaOH, and supplemented with 0.2% glucose, 3 mg/L each of D-panthotenic acid and thiamine. M9CA medium contained M9 medium plus 0.2% casamino acids. 5-amino acid (5AA) minimal medium contained M9 medium plus 0.5 mM each of threonine, leucine, histidine, proline and arginine (Faulkner et al, J. Biocl. Chem. 269:23471 (1994)).
(§2) AB 1157 and 31132 were precultured overnight aerobically in M9CA medium at 37° C. and were then diluted to 3×10^7 cells/mL into 5 mL M9CA medium. JI132 was precultured in the presence of 20 μg/mL chloramphenicol and 500 μg/mL kanamycin. When the cells are transferred from M9CA medium to 5AA minimal medium cultures were first centrifuged and washed twice with the 5AA medium before final dilution in it. The centrifugation was conducted at room temperature to avoid temperature shocks. Cultures without and with Mn porphyrins (0.1 to 30 μM) were grown aerobically in 5 mL volume in test tubes in a thermostated orbital shaker (45° angle, 200 rpm) at 37° C.). Rates of growth were followed turbidimetrically at 700 nm to minimize interference from the absorbance of test compounds.

[6] = data from Batinic-Haberle et al 2002, cited from earlier work; for Rf (compound path/solvent path), metal-free porphyrin (in parenthesis): metal-free ligand of the named Mn porphyrin; for Rf (compound path/solvent path), Mn complex: silica gel TLC, KNO3-saturated H2O/H2O/acetonitrile = 1/1/8
[7] = Mn(III)/Mn(II); 0.1 M NaCl, 0.05 M phosphate buffer, pH 7.8; data from Batinic-Haberle et al 2002; cited from earlier work
[8] = pH 7.8, (22 ± 1) °C; data from Batinic-Haberle et al 2002 (MnTE-2-PyP: Inorg. Chem. 40:726 (2001)); cited from earlier work
wild type AB1157 E. coli = assay: Aerobic growth of wild type E. coli (toxicity); format: cell-based
Procedure: as §1, §2

[9] = Kinetic salt effect on O2.^− dismutation by cytochrome c assay; format: biochemical
Procedure: Kinetic salt effect. The dependence of the catalytic rate constant for the O2.^− dismutation upon ionic strength was determined by cytochrome c assay (McCord and Fridovich, J. Biol. Chem. 244:6049 (1969)) in 0.05 M phosphate buffer, pH 7.8 with NaCl ranging from 0 to 0.4 M. In doing this, the effect of ionic strength on the rate of the O2.^−/cytochrome c reaction was corrected for.
Kinetic salt effect. The effect of the ionic strength (μ) on the catalytic rate constant was assessed using eq which is based on Debye-Huckel relation (Hambright et al, J. Porphyrins Phthalocyanines 7:139-146 (2003)) for the effect of the ionic strength of the solution on the activity coefficient of an ion. log k=log kref+2AzAzBμ^1/2/(1+μ^1/2) The k is the rate constant at any given ionic strength, while kref is the rate constant at μ=0. The A is a collection of physical constants with a value of 0.509 and zA and zB are the charges of the reacting species. The equation predicts a linear plot of log k vs μ^1/2/(1+μ^1/2). Eq assumes a coefficient of 1.0 (βai) for μ^1/2 in the denominator, i.e., the distance of the closest approach, ai to be 3 A and β is a physical constant, […]. It is doubtful whether great significance can be attributed to the ai, thus to the product zAzB (Hambright et al, J. Porphyrins Phthalocyanines 7:139-146 (2003)), especially so in the light of the bulkiness, high charge and solvation shell of the metalloporphyrins. Accounting for the mono- and diprotonated phosphates as the major species at pH 7.8 (pKa=7.2), and the concentration of the NaCl, the ionic strength was calculated using equation μ=½ Σ mizi^2 where mi is the molality and zi the charge of the given ion.
The slopes of the plots are −6.48 (MnTE-2-PyP^5+), −7.02 (MnTMOE-2-PyP^5+), −7.38 (MnTDMOE-2-ImP^5+), and −4.15 (MnTnBu-2-PyP^5+). As expected (Hambright et al, J. Porphyrins Phthalocyanines 7:139-146 (2003)), when the reactants are ions of opposite charges, the higher the ionic strength of the solution the lower the rate constants, i.e. the slopes are negative. The slopes of the plots indicate clearly the impact of the local dielectric constant on the kcat. The kcat of the most lipophilic compound, MnTnBu-2-PyP^5+ is 40% less sensitive to the changes in ionic strength of the solution than is the kcat of its methoxyethyl analogue, MnTMOE-2-PyP^5+.

Row | SMILES | aerobic growth of SOD-deficient E. coli ([5]; 5AA minimal medium, 25 μM) | protection of SOD-deficient E. coli ([5]; M9CA medium, 1 μM) | protection of SOD-deficient E. coli ([5]; M9CA medium, 30 μM) | facilitation of aerobic growth of SOD-deficient E. coli, dependence on concentration ([5]; M9CA medium) | Rf (compound path/solvent path), metal-free porphyrin (in parenthesis) [6] | Rf (compound path/solvent path), Mn complex [6] | Metal-centered redox potential E1/2 [7] | log kcat for O2^− dismutation [8] | also measured
1 | COCCn1cc[n+](C)c1-c1c2nc(c(-c3n(CCOC)cc[n+]3C)c3ccc([n-]3)c(-c3n(CCOC)cc[n+]3C)c3nc(c(-c4n(CCOC)cc[n+]4C)c4ccc1[n-]4)C=C3)C=C2.[Mn+3] [MnTM,MOE-2-ImP^5+, Mn(III) tetrakis 5,10,15,20-tetrakis[N-methyl-N′-(2-methoxyethyl)imidazolium-2-yl]porphyrin] | – | – | – | – | – | – | – | – | Rf (compound path/solvent path), metal-free porphyrin (in parenthesis) ([1]; metal-free ligand of the named Mn porphyrin): 0.17; Rf (compound path/solvent path), Mn complex [1]: 0.15; log kcat for O2^− dismutation [2]: 7.98; degradation within 2 hours [3]: 2%; Metal-centered redox potential E1/2 ([4]; Mn(III)/Mn(II), 0.1 M NaCl, 0.05 M phosphate buffer, pH 7.8, ±3 mV): +356 mV vs NHE
2 | C[n+]1ccccc1-c1c2nc(c(-c3cccc[n+]3C)c3ccc([n-]3)c(-c3cccc[n+]3C)c3nc(c(-c4cccc[n+]4C)c4ccc1[n-]4)C=C3)C=C2.[Mn+3] [MnTM-2-PyP^5+] | not far behind | low protection | either much higher or near full protection | concentration-dependent manner | 0.13 | 0.09 | +220 mV vs NHE | 7.79 | –
3 | CCCC[n+]1ccccc1-c1c2nc(c(-c3cccc[n+]3CCCC)c3ccc([n-]3)c(-c3cccc[n+]3CCCC)c3nc(c(-c4cccc[n+]4CCCC)c4ccc1[n-]4)C=C3)C=C2.[Mn+3] [MnTnBu-2-PyP^5+] | – | – | – | – | 0.46 | 0.33 | +254 mV vs NHE | 7.25 | aerobic growth of SOD-deficient E. coli ([5]; 5AA minimal medium, 3 μM): nearly as effective; aerobic growth of SOD-deficient E. coli ([5]; M9CA medium, 1 and 3 μM): less effective; aerobic growth of SOD-deficient E. coli ([5]; M9CA medium, 10 and 30 μM): most effective; toxicity to wild type E. coli (wild type AB1157 E. coli; M9CA medium, 30 μM (up to 30 μM)): only marginal toxicity; concentration at which toxicity on the parental (wild type) strain is exerted / becomes observable (wild type AB1157 E. coli; M9CA medium, range 0.1 to 30 μM): 30 µM; E1/2 more positive / higher than that of MnTE-2-PyP^5+ ([4]; difference vs MnTE-2-PyP^5+ (+228 mV vs NHE)): 26 mV; slope of log kcat vs μ^1/2/(1+μ^1/2) ([9]; 0.05 M phosphate buffer, pH 7.8, 0-0.4 M NaCl): −4.15; kcat less sensitive to changes in ionic strength than MnTMOE-2-PyP^5+ ([9]; vs MnTMOE-2-PyP^5+): 40%
4 | CCC[n+]1ccccc1-c1c2nc(c(-c3cccc[n+]3CCC)c3ccc([n-]3)c(-c3cccc[n+]3CCC)c3nc(c(-c4cccc[n+]4CCC)c4ccc1[n-]4)C=C3)C=C2.[Mn+3] [MnTnPr-2-PyP^5+] | most effective | low protection | either much higher or near full protection | concentration-dependent manner | 0.31 | 0.20 | +238 mV vs NHE | 7.38 | –
5 | CCCCCCCC[n+]1ccccc1-c1c2nc(c(-c3cccc[n+]3CCCCCCCC)c3ccc([nH]3)c(-c3cccc[n+]3CCCCCCCC)c3nc(c(-c4cccc[n+]4CCCCCCCC)c4ccc1[nH]4)C=C3)C=C2 [metal-free n-octyl] | – | – | – | – | – | – | – | – | toxicity of metal-free vs Mn(III) complex (wild type AB1157 E. coli; separate experiment): equally toxic
